Data published in patent US20240216395A1, “19-NOR C3,3-DISUBSTITUTED C21 -N-PYRAZOLYL STEROID FOR USE IN TREATING MAJOR DEPRESSIVE DISORDER AND […]” (priority 2021, published 2024).

How the values were obtained:
[1] = test system: nondependent, recreational users of CNS depressants; experiment: Abuse potential main study, treatment phase: TEAEs; type: in vivo, human; conditions: treatment phase
Protocol: The main study consisted of 4 phases (FIG. 30B). The screening phase was a 1-day visit occurring within 21 days of the beginning of the qualification phase. The qualification phase was a 4-day, inpatient period to ensure participants could discriminate between alprazolam (active comparator) and placebo, and that they could tolerate the alprazolam 2-mg doses. Participants received single-oral doses of alprazolam 2 mg and placebo in a crossover manner 24 hours apart, and if they could discriminate between the two medications, they continued to the treatment phase. The treatment phase was a double-blind, active- and placebo-controlled, 6-way crossover design where participants were randomized equally to a single oral dose of 1 of 6 treatments: placebo, alprazolam (1.5 and 3 mg), and Compound (1) (30, 60, and 90 mg). The Compound (1) doses were based on the results from the first part, dose selection, and treatments were separated by 7 days. The follow-up phase was a 1-day visit occurring 7 (2) days after the treatment phase.
Safety and tolerability endpoints included the frequency and severity of AEs and SAEs, the change from baseline in clinical laboratory assessments, vital signs, and ECG, and suicidality assessed by the Columbia-Suicide Severity Rating Scale (C-SSRS).
The dose selection safety set included all participants who received 1 dose of Compound (1). The main study qualification safety set included all participants who received ≥1 dose of alprazolam. For the treatment phase, the randomized set included all participants who were randomized and the safety set included all participants who received ≥1 dose of Compound (1) or alprazolam. The completer set included all participants in the randomized set who completed all treatment periods, had sufficient data for evaluation of the primary endpoint, and had ≥1 observation within 2 hours of Tmax for each treatment for Drug Liking VAS scores. […] The PK set included all participants in the treatment phase who received 1 dose of Compound (1) and had 1 PK sample after dosing.

[2] = test system: nondependent, recreational users of CNS depressants; experiment: Abuse potential main study, treatment phase: subjective VAS measures (Drug Liking, Overall Drug Liking, Take Drug Again, High, Good/Bad/Any Drug Effects, Alertness/Drowsiness, Drug Similarity)
[3] = Alprazolam 1.5 mg - placebo (study validity)
[4] = Alprazolam 3 mg - placebo (study validity)

Question: Cc1nnc2n1-c1ccc(Cl)cc1C(c1ccccc1)=NC2 [Alprazolam, alprazolam, reference compound] was tested. Which “Back pain (TEAE)” value ([1]; Alprazolam 1.5 mg (n = 71)) did it give?
Answer: 0 n

Question: And the “Confusional state (TEAE)” value ([1]; Alprazolam 1.5 mg (n = 71))?
Answer: 0 n

Question: What about the “Fine motor skill dysfunction (TEAE)” value ([1]; Alprazolam 1.5 mg (n = 71)) of the same molecule?
Answer: 0 n

Question: And the “Hiccups (TEAE)” value ([1]; Alprazolam 1.5 mg (n = 71))?
Answer: 0 n

Question: What about the “Irritability (TEAE)” value ([1]; Alprazolam 1.5 mg (n = 71)) of the same molecule?
Answer: 0 n

Question: And the “Swelling face (TEAE)” value ([1]; Alprazolam 1.5 mg (n = 71))?
Answer: 0 n

Question: What about the “Tremor (TEAE)” value ([1]; Alprazolam 1.5 mg (n = 71)) of the same molecule?
Answer: 0 n

Question: And the “Feeling drunk (TEAE)” value ([1]; Alprazolam 3 mg (n = 66))?
Answer: 0 n

Question: And the “Fine motor skill dysfunction (TEAE)” value ([1]; Alprazolam 3 mg (n = 66))?
Answer: 0 n

Question: And the “Irritability (TEAE)” value ([1]; Alprazolam 3 mg (n = 66))?
Answer: 0 n

Question: And the “Swelling face (TEAE)” value ([1]; Alprazolam 3 mg (n = 66))?
Answer: 0 n

Question: What about the “Tremor (TEAE)” value ([1]; Alprazolam 3 mg (n = 66)) of the same molecule?
Answer: 0 n

Question: And the “Upper respiratory tract infection (TEAE)” value ([1]; Alprazolam 3 mg (n = 66))?
Answer: 0 n

Question: What about the “Drug Liking Emax difference” value ([2]; Alprazolam 1.5 mg - placebo) of the same molecule?
Answer: 22.50

Question: And the “Overall Drug Liking Emax difference” value ([2]; Alprazolam 1.5 mg - placebo)?
Answer: 24.00

Question: And the “Take Drug Again Emax difference” value ([2]; Alprazolam 1.5 mg - placebo)?
Answer: 24.00

Question: And the “Bad Drug Effects Emax difference” value [2, 3]?
Answer: 0.00

Question: And the “Good Drug Effects Emax difference” value [2, 3]?
Answer: 49.00

Question: And the “High Effects Emax difference” value [2, 3]?
Answer: 43.80

Question: And the “Drug Liking Emax difference” value ([2]; Alprazolam 3 mg - placebo)?
Answer: 25.52

Question: And the “Overall Drug Liking Emax difference” value ([2]; Alprazolam 3 mg - placebo)?
Answer: 26.00

Question: What about the “Take Drug Again Emax difference” value ([2]; Alprazolam 3 mg - placebo) of the same molecule?
Answer: 29.00

Question: What about the “Bad Drug Effects Emax difference” value [2, 4] of the same molecule?
Answer: 1.00

Question: What about the “Good Drug Effects Emax difference” value [2, 4] of the same molecule?
Answer: 53.47

Question: What about the “High Effects Emax difference” value [2, 4] of the same molecule?
Answer: 51.65

Question: What about the “Drug Similarity: Placebo Similarity median score” value ([2]; all dosages, 12 hours postdose) of the same molecule?
Answer: zero

Question: What about the “Drug Similarity: Benzodiazepines Similarity median score” value ([2]; alprazolam 1.5 mg) of the same molecule?
Answer: 92.5

Question: And the “Drug Similarity: Opioids Similarity median score” value ([2]; alprazolam 3 mg)?
Answer: 40.0
